For orientation: IC50 means the midpoint of a concentration-inhibition curve.

Assay [1] concerns NPY. Put plainly: NPY-antagonism in vitro, isolated perfused rat kidney. The conditions noted are these: NPY 1 μM bolus. As for the experimental part: The abdomen is opened along the centre of the body and the left kidney is removed after the insertion of catheters in the renal artery, renal vein and ureter. The isolated kidney is immediately perfused with a modified Krebs-Ringer solution having the following composition (4 ml/minute):
The perfusion pressure is measured continuously using a pressure gauge. After a 60 minute stabilisation period the perfusion rate is adjusted so as to obtain a perfusion pressure of approximately 100 mm Hg. After a further 30 minutes the experiment is started and NPY (1μM) is administered as a bolus (0.1 ml) at 15 minute intervals until the pressure increase observed reaches a constant value. The compounds to be tested are given in the form of a continuous infusion over a period of 5 minutes and then NPY is injected. After a 30 minute wash-out period the next highest concentration of test substance is investigated. 3 to 5 different concentrations of the particular compound are tested on each occasion. Concentration/activity curves can be obtained by plotting the percentage inhibition of the NPY activity against the logarithm of the concentration (mol/1) of the compound.

Assay [2] deals with NPY. Put plainly: In vivo NPY-antagonism, NPY-induced blood pressure effects in pithed rats. The following applies: Rattus norvegicus, iv, 1 min, NPY 10 μg/kg i.v., diastolic blood pressure, read-out: pIC50 (in vivo NPY-antagonism) (converted). The procedure:
After intubation of the trachea the animals are pithed by introducing a blunt needle through the eye into the spinal bone marrow channel. The animals are ventilated with oxygen-rich ambient air using a respiratory pump (20 strokes/minute). A cannula is inserted in the left carotid artery and the arterial blood pressure is measured using a pressure gauge (Braun Melsungen Combitrans) connected to a recording device. For injection purposes a catheter is placed in the left jugular vein through which heparin is administered (200 IU/kg, i.v.). After the blood pressure has been stabilised, the animals are given 2 bolus injections of NPY (10 μg/kg, i.v.) at intervals of 15 minutes. The average increase in diastolic blood pressure is taken as the reference value (=100%). The test substances are injected in increasing doses (4 to 6 doses) at intervals of 15 minutes. One minute after administration of the test substance, NPY is administered.
The antagonistic effect of the test substances is determined by plotting the percentage inhibition of the NPY-induced blood pressure effects against the logarithm of the concentration of active substance.

The next assay concerns NPY induced food intake. Put plainly: Food intake in satiated rats after NPY application to the PVN. The class given is in vivo, rat. The procedure:
For these determinations food intake was measured in normal satiated rats after application of NPY to the paraventricular nucleus (PVN) in the presence or absence of the test compound. […] The rats were individually housed in stainless steel cages where water and food were available ad libitum.
Rats under Pentobarbital anaesthesia were stereotactically implanted with a stainless steel double guide cannula targeted bilaterally at the PVNs. Stereotactic coordinates were: -1.8mm caudal, 0.5mm lateral to bregma and 7.0 mm below the skull surface. Injection cannulae extended the guide cannulae by 1 mm. Animals were allowed to recover from surgery for at least 10 days before being used in the experiments. Rats were handled and mock-injected during the […] recovery period to habituate them to the injection procedure.
Animals treated with both test compounds and NPY were treated first with the test compound. Then, 15 min. after PVN infusion of the test compound or vehicle (control) 1 μg of NPY was administered by PVN infusion.
Food intake was measured by placing preweighed pellets into the cages at the time of NPY injection. Pellets were removed from the cage at 2 h post NPY injection. The food intake of animals treated with test compound was calculated as a percentage of the food intake of control animals, i.e., animals treated with vehicle.

The target in another assay is T1, human Y1 -receptor (Homo sapiens, UniProt P25929).
T1 construct: endoge- nously expressing Y1 and Y2 receptors; endogenous in cells; host or cells: SK-N-MC (neuroblastoma) cells
T1 sequence (P25929 1-384): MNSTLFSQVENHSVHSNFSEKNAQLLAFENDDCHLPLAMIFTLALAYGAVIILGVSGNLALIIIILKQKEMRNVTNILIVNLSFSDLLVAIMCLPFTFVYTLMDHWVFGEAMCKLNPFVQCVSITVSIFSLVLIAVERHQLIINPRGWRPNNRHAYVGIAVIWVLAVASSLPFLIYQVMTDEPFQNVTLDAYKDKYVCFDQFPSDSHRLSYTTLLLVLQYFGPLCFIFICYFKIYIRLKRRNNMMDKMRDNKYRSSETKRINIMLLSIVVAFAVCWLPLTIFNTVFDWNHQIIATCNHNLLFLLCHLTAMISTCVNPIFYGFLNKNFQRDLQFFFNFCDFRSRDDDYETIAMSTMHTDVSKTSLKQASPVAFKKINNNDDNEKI
Put plainly: Receptor binding to SK-N-MC cells ([125I]-Bolton-Hunter-NPY displacement). The conditions noted are these: Table 1. As for the experimental part: Incubation is ended by centrifuging (10 minutes at 3000×gand […].). After washing once with PBS, the radioactivity of the pellet is measured in a gamma counter. […] The proportion of non-specific binding is defined as that radioactivity which is bound in the presence of 1 μM NPY. The IC50 values of the unlabelled test substances are determined graphically.

Where a name gives a salt, the structure may show the parent alone.

For `CN(CCCC(NC(=O)C(c1ccccc1)c1ccccc1)C(=O)NCc1ccc(O)cc1)C(=N)N` (racemic) [Compound E, (R,S)-N^5-(Aminoiminomethyl)-N^2-(diphenylacetyl)-N-[(4-hydroxyphenyl)methyl]-N^5-methyl-ornithinamide-hydrochloride], the “pIC50 (NPY-antagonism in vitro)” value with NPY [1] is 8.41. The ED50 with NPY [2] is 0.0135 µmol/kg. For `N=C(N)NCCC[C@@H](NC(=O)C(c1ccc(O)cc1)c1ccc(O)cc1)C(=O)NCc1ccc(CNC(N)=O)cc1` [A], in the assay on NPY induced food intake (30 μg, PVN, 2 h, 1 μg NPY), the “% Inhibition of food intake” value is listed as 32% and the “Food intake following NPY application” value is recorded as 2.40 g/animal. At human Y1 -receptor, `CCOC(=O)NC(=O)NCc1ccc(CNC(=O)[C@@H](CCCNC(=N)N)NC(=O)C(c2ccccc2)c2ccccc2)cc1` [H, (R)-N^2-(Diphenylacetyl)-N-[[4-(ethoxycarbonylamino-carbonylaminomethyl)phenyl]methyl]-argininamide-trifluor-acetate] came in with an IC50 of 1.1 nM. This counts as single-digit nanomolar.

`CN(C)C(=O)NCc1ccc(CNC(=O)[C@@H](CCCNC(=N)N)NC(=O)C(c2ccccc2)c2ccccc2)cc1` [I, (R)-N-[[4-(Dimethylaminocarbonylaminomethyl)phenyl]methyl]-N^2-(diphenylacetyl)-argininamide-bis-(trifluor-acetate)] came in with an IC50 on human Y1 -receptor of 1.5 nM. For the compound `N=C(N)NCCC[C@@H](NC(=O)Nc1ccc(Cl)c(Cl)c1)C(=O)NCc1ccc(CNC(N)=O)cc1` [K], on human Y1 -receptor, the IC50 came out at 1.8 nM.

In the case of `COC(=O)COc1ccc(C(C(=O)N[C@H](CCCNC(=N)N)C(=O)NCc2ccc(CNC(N)=O)cc2)c2ccc(O)cc2)cc1` (stereo partly drawn) [L], the concentration for half-maximal inhibition (IC50) on human Y1 -receptor was determined as 2.2 nM.

As for `N=C(N)NCCC[C@@H](NC(=O)C(c1ccccc1)c1ccccc1)C(=O)OCc1ccc(CNC(N)=O)cc1` [M, (R)-N^2-(Diphenylacetyl)-arginine-[4-(aminocarbonylamino-methyl)phenyl]methylester-trifluoracetate], the concentration for half-maximal inhibition (IC50) on human Y1 -receptor was determined as 3 nM. Same read-out and setting: the figure for `COc1ccc2cc(C(=O)N[C@H](CCCNC(=N)N)C(=O)NCc3ccc(CNC(N)=O)cc3)ccc2c1` [N, (R)-N-[[4-(Aminocarbonylaminomethyl)phenyl]methyl]-N^2-(6-methoxy-2-naphthoyl)-argininamide-acetate] is 3.4 nM; for `N=C(N)NCCC[C@@H](NC(=O)CC(c1ccccc1)c1ccccc1)C(=O)NCc1ccc(CNC(N)=O)cc1` [O, (R)-N-[[4-(Aminocarbonylaminomethyl)phenyl]methyl]-N^2-(3,3-diphenyl-1-oxopropyl)-argininamide] it is 3.45 nM; for `CN(Cc1ccc(CNC(N)=O)cc1)C(=O)[C@@H](CCCNC(=N)N)NC(=O)C(c1ccccc1)c1ccccc1` [P, (R)-N-[[4-(Aminocarbonylaminomethyl)phenyl]methyl]-N^2-(diphenylacetyl)-N-methyl-argininamide-acetate] it is 3.5 nM.

With `CCOC(=O)NCc1ccc(CNC(=O)[C@@H](CCCNC(=N)N)NC(=O)C(c2ccccc2)c2ccccc2)cc1` [Q, (R)-N^2-(Diphenylacetyl)-N-[[4-(ethoxycarbonylamino-methyl)phenyl]methyl]-argininamide-trifluoracetate], at human Y1 -receptor, the half-maximal inhibitory concentration (IC50) was found to be 4.25 nM. Further, the “pIC50 (NPY-antagonism in vitro)” value in the assay on NPY [1] was determined as 7.77. In the assay with NPY [2], the ED50 is 0.162 µmol/kg. With `N=C(N)NCCC[C@@H](NC(=O)Cc1cc(Cl)c(N)c(Cl)c1)C(=O)NCc1ccc(CNC(N)=O)cc1` [R, (R)-N-[[4-(Aminocarbonylaminomethyl)phenyl]methyl]-N^2-[(4-amino-3,5-dichlorphenyl)acetyl]-argininamide-tri-fluoracetate], at human Y1 -receptor, the half-maximal inhibitory concentration (IC50) amounted to 4.5 nM. That is a single-digit nanomolar value.

With `NC(=O)Cc1ccc(CNC(=O)[C@@H](CCCNc2ncc[nH]2)NC(=O)C(c2ccccc2)c2ccccc2)cc1` [S, (R)-N-[[4-(Aminocarbonylmethyl)phenyl]methyl]-N^2-(diphenylacetyl)-N^5-(1H-imidazol-2-yl)-ornithinamide-hydroiodide], the concentration for half-maximal inhibition (IC50) on human Y1 -receptor was 28.3 nM. On to “Neuropeptide Y [NPY, reference compound]”, for which, in the assay on NPY induced food intake (NPY 1 μg, versus 0.5 g with vehicle), the “two hour food intake induced by NPY” value is on record as 3.5 g.

The values are drawn from patent publication US6114390A, “Amino acid derivatives, pharmaceutical compositions containing these compounds and processes for preparing them” (Karl Thomae GmbH, priority 1997, dated 2000).
